Measurements from ChEMBL document CHEMBL4229339, “Total syntheses and stereochemical reassignments of mollenines A and B” (Bioorg Med Chem Lett, 2018).
Active and inactive are the calls of the source.

Columns and labels:
Escherichia coli = experiment: Antibacterial activity against Escherichia coli at 5 uM; assay type: functional, organism-based
Homo sapiens = species: Homo sapiens; experiment: Cytotoxicity against human HeLa/Fucci cells at 5 uM; assay type: functional, cell-based
Bacillus cereus = experiment: Antibacterial activity against Bacillus cereus at 5 uM; assay type: functional, organism-based
Candida albicans = experiment: Antifungal activity against Candida albicans at 5 uM; assay type: functional, organism-based

Measured: Activity

CC(C)=CC[C@@]12C[C@H]3C(=O)O[C@H](CC(C)C)C(=O)N3[C@@H]1Nc1ccccc12
inactive: all assays above

CC(C)=CCC12CC3C(=O)OC(CC(C)C)C(=O)N3C1Nc1ccccc12 (single isomer, unassigned; (+))
inactive: all assays above

CC(C)=CC[C@@]12C[C@H]3C(=O)O[C@@H](CC(C)C)C(=O)N3[C@@H]1Nc1ccccc12
inactive: all assays above

CC(C)=CC[C@@]12C[C@@H]3C(=O)N[C@@H](CC(C)C)C(=O)N3[C@@H]1Nc1ccccc12
inactive: all assays above

CC(C)=CC[C@@]12C[C@H]3C(=O)O[C@@H](CC(C)C)C(=O)N3[C@@H]1N(C=O)c1ccccc12
inactive: all assays above

CC(C)=CCC12CC3C(=O)OC(CC(C)C)C(=O)N3C1Nc1ccccc12 (stereo in doubt; (+)-7)
inactive: all assays above
